Experimental data taken from patent US8680300B2, “Dioxanes derived from regrouping carbohydrates and C-glycosides, process for obtaining same and uses thereof” (Universidad de la Laguna, priority 2009, dated 2014).

Legend:
neural cell line HT22 [1] = assay: Cytotoxicity trial, trypan blue dye, cell line HT22; assay type: cell-based, mouse; settings: HT22, concentrations of 1 and 5 μM
Protocol: (§1) Two stable cell lines of different origins were used for these trials: neural cell line HT22 from mouse hippocampus and line MCF7 from human breast cancer.
(§2) Both cell lines were grown in a DMEM culture medium supplemented with 10% foetal bovine serum and antibiotics at 37° C. with a 5% CO2 atmosphere. 35-mm Petri dishes were used as growth media. When the cultures reached approximately 80% confluence they were exposed to the different compounds of the study for 24 hours at 37° C., at concentrations of 0.1, 1 and 5 μM. The compounds were previously diluted in DMSO.
(§3) For the cytotoxicity trials, after 24 hours of treatment with the compounds, the cells were treated with trypsin, resuspending them in DMEM and counting them. On one hand, an aliquot of 100 μl was preserved for the total count of the cells present in Neubauer chambers. On the other, the rest of the cell volume (approximately 1 ml) was processed for dyeing with trypan blue to visualise those cells susceptible to dyeing (non-viable cells) against intact cells (viable cells). To this end, the ViCell (Beckman Coulter) quantifier was used.

MCF7 breast cancer cells [2] = assay: Cytotoxicity trial, trypan blue dye, cell line MCF7; assay type: cell-based, human; settings: for cytotoxicity (conclusion, in words): MCF7, concentrations of 1 and 5 μM
Protocol: as §1, §2, §3

cell line HT22 = assay: Visualisation of HT22 cultures after exposure to the compounds; assay type: cell-based, mouse; settings: HT22, 5 μM, after 4-5 hours of treatment
Protocol: as §1
(§4) Both cell lines were grown in a DMEM culture medium supplemented with 10% foetal bovine serum and antibiotics at 37° C. with a 5% CO2 atmosphere. 35-mm Petri dishes were used as growth media. […] The compounds were previously diluted in DMSO.
(§5) (The control cultures of FIG. 3 were compared to the cultures of HT22 and MCF7 exposed to the compounds—FIGS. 4 and 5 respectively—).

cell line MCF7 = assay: Visualisation of MCF7 cultures after exposure to the compounds; assay type: cell-based, human; settings: MCF7, 5 μM, after 4-5 hours of treatment
Protocol: as §1, §4, §5

neural cell line HT22 [3] = assay: Cell proliferation trial, cell line HT22; assay type: cell-based, mouse; settings: for antiproliferative effect (conclusion, in words): HT22; for decrease in normal proliferation: HT22, 24 hours, versus medium (DMSO at 0.01%), concentration not given
Protocol: as §1, §2, §3

MCF7 breast cancer cells [4] = assay: Cell proliferation trial, cell line MCF7; assay type: cell-based, human
Protocol: as §1, §2, §3

Row | Compound | cytotoxicity (conclusion, in words) (neural cell line HT22 [1]) | cytotoxicity (conclusion, in words) (MCF7 breast cancer cells [2]) | cytotoxic effect on visualisation of cultures (cell line HT22) | cytotoxic effect on visualisation of cultures (cell line MCF7) | toxicity (percentage of cell death, trypan blue) (MCF7 breast cancer cells [2]; MCF7, 24 hours, normalised to medium (DMSO at 0.01%), concentration not given) | toxicity (in words) (MCF7 breast cancer cells [2]; MCF7, 24 hours, concentration not given) | antiproliferative effect (conclusion, in words) (neural cell line HT22 [3]) | decrease in normal proliferation (neural cell line HT22 [3]) | antiproliferative effect (conclusion, in words) (MCF7 breast cancer cells [4]; MCF7) | proliferation inhibition (in words) (MCF7 breast cancer cells [4]; MCF7, 24 hours, versus medium (DMSO at 0.01%))
1 | CO[C@H]1O[C@@H](OC(C)=O)[C@H]([C@@H](COC(C)=O)OC)O[C@@H]1OC [Compound 6] | highly cytotoxic | highly cytotoxic | significant cytotoxic effect | significant cytotoxic effect | – | – | – | – | – | –
2 | CO[C@@H]1O[C@@H](OC(C)=O)[C@H]([C@@H](COC(C)=O)OC)O[C@@H]1OC [Compound 7] | highly cytotoxic | highly cytotoxic | significant cytotoxic effect | significant cytotoxic effect | – | – | – | – | – | –
3 | CO[C@@H]1O[C@@H]2OC[C@@H](OC)[C@@H]2O[C@@H]1OC [Compound 9] | – | – | – | – | > 65% | high toxicity | antiproliferative effects | approximately 50% | – | –
4 | CO[C@H]1O[C@@H]2OC[C@@H](OC)[C@@H]2O[C@@H]1OC [Compound 8] | – | – | – | – | – | – | antiproliferative effects | approximately 50% | antiproliferative effects | partial proliferation inhibition
